US20090298793A1, “Acylgycerophospholipids for treating symptoms concomitant with cancer” (KTB TUMORFORSCHUNGSGESELLSCHAFT MBH, priority 2005, published 2009)

Experiments:
[1] = tested on: tumor cells; details: Nagami et al., Bioorganic & Medicinal Chemistry Letters 16: 782-785 (2006); cited from earlier work
[2] = tested on: human kidney cell carcinoma RXF 486; assay: Course of weight of naked mice bearing cachexia-inducing human kidney cell carcinoma RXF 486; assay type: in vivo; details: 33 mg/kg DPPC p.o., days 0-4, 7-11, 14, 17, 18; liposomal dispersion in saline; n=3; p <0.001
Description: Tumors from the human kidney cell carcinoma RXF 486 have a string cachexia-inducing effect.
Female athymic BALB/c nude mice (nu/nu) (Charles River, Frederick, Md.) at the age of 8 to 10 weeks were employed. […] They were allowed water and rodent food (Altromin, Lage, Germany) ad libitum.
Fragments of 3-5 mm (in diameter) of the human kidney cell carcinoma RXF 486 were subcutaneously grafted between the animals' front and rear flanks. The therapy experiments were begun when the tumors had reached a size of 30-40 mm^3.
For the therapy, synthetic PL (dipalmitoylphosphatidylcholine, DPPC; Sygena, Liestal, Switzerland) was employed. It was dispersed in 0.9% (w/v) saline in a concentration of 33 mg/ml (ultrasonic dispersion in 50 ml Falcon tube) to provide a heterogeneous liposomal dispersion. For the oral administration (p.o.), the dispersion was adjusted to 3.3 mg/ml with saline.
On experiment days 0-4, 7-11, 14, 17 and 18, the animals were treated with 33 mg each per kg of body weight of DPPC p.o. by a stomach tube (application volume: 10 ml/kg). The control animals only obtained saline. The weight of the animals was determined on days 0, 2, 4, 7, 9, 11, 14, 18, 21, 25, 26 and 29 and is shown in FIG. 1 in % of the weight on day 0.

CCCCCCCCCCCCCCCC(=O)OC[C@H](COP(=O)([O-])OCC[N+](C)(C)C)OC(=O)CCCCCCCCCCCCCCC [DPPC, dipalmitoylphosphatidylcholine]
apoptosis and necrosis in tumor cells [1]: does not show such an effect
weight loss as compared to an untreated control group [2]: virtually stopped

CCCCCCCCCCCCCC(=O)OC[C@H](COP(=O)([O-])OCC[N+](C)(C)C)OC(=O)CCCCCCCCCCCCC [dimyristoyl-PC, reference compound]
apoptosis and necrosis in tumor cells [1]: produces apoptosis and necrosis
